# From US20250152564A1, “PROPYLENE KETONE-CONTAINING BIOINHIBITOR, PREPARATION METHOD THEREFOR, AND USE THEREOF” (SHANGHAI HANSOH BIOMEDICAL CO., LTD., priority 2022, published 2025)
# Columns and labels:
# FGFR1 = FGFR1 (Homo sapiens (Human), UniProt P11362); assay: TR-FRET kinase inhibition assay, FGFR1; format: biochemical; conditions: ATP Km concentration (30 μM)
# Method in brief: (§1)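 Kinase-domain fragments in 50 mM HEPES pH 7.5 with 10 mM MgCl2, ATP at Km plus peptide substrate; 60 min reaction at room temperature, then EDTA/Eu-anti-phosphotyrosine (PT66) detection for 60 min (30 min for V564F). 11-point 3-fold dilutions from 1000 nM; IC50 from four-parameter fit of 665/620 nm ratio inhibition.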
# FGFR3 = FGFR3 (Homo sapiens (Human), UniProt P22607); assay: TR-FRET kinase inhibition assay, FGFR3; format: biochemical; conditions: ATP Km concentration (30 μM)
# Description: To measure the IC50 values of the compounds against FGFR1, FGFR2, FGFR3, FGFR4, and FGFR2 V564F at ATP Km concentrations by TR-FRET method.
# TR-FRET (time-resolved fluorescence resonance energy transfer) method was used to detect the inhibitory activity of the compounds on FGFR1, FGFR2, FGFR3, FGFR4, and FGFR2 V564F kinase region fragments. The highest detection concentration of the compounds in 5 kinase experiments was 1000 nM, which was diluted in 3 folds, with a total of 11 concentrations (1000 nM to 0.017 nM). A kinase buffer (50 mM HEPES pH 7.5, 1 mM EGTA, 10 mM MgCl2, 2 mM DTT, and 0.01% Tween-20) was used to prepare 4× enzyme solution, 4× compound solutions diluted in gradient, and a 2×ATP/Peptide substrate solution. To a 384-well plate, 2.5 μL of enzyme solution and 2.5 μL of diluted […] compound solution were added, and 5 μL of 2×ATP/Peptide substrate solution was then added. After reacting at room temperature for 60 minutes for FGFR1, FGFR2, FGFR3, and FGFR2 V564F kinases, and 120 minutes for FGFR4 kinase, 10 μL of a 2× termination and detection mixed liquid prepared with 1×LANCE detection buffer with an EDTA concentration of 20 mM and a Europium-anti-phosphotyrosine (PT66) concentration of 2 nM was added to each well of the plate. After reacting at room temperature for 60 minutes for FGFR1, FGFR2, FGFR3, and FGFR4, and 30 minutes for FGFR2 V564F, the fluorescence signal value in each well of the plate was measured by a microplate reader.
# (§2) 1) Inhibition rate (%): Calculation was performed on the raw data (665 nm/620 nm reading ratio) according to the following formula to obtain the inhibition rate. Inhibition rate %=[(mean value in positive control well−value in sample well)/(mean value in positive control well−mean value in negative control well)]×100, wherein the positive control well was a reaction well without a compound […], and the negative control well was a reaction wells without an enzyme.
# (§3) 2) Curve fitting: Log(inhibitor) vs. response—Variable slope (four parameters) in GraphPad Prism 6 was used for fitting equation analysis of the compound concentration and the corresponding inhibition rate, and the curve was fitted to obtain the IC50 values of the compounds.
# FGFR2 V564F = FGFR2 V564F (Homo sapiens (Human), UniProt P21802, V564F); assay: TR-FRET kinase inhibition assay, FGFR2 V564F; format: biochemical; conditions: ATP Km concentration (20 μM)
# Method in brief: as §1
# FGFR2 = FGFR2 (Homo sapiens (Human), UniProt P21802); assay: TR-FRET kinase inhibition assay, FGFR2; format: biochemical; conditions: ATP Km concentration (30 μM)
# Method in brief: as §1
# NCI-H716 cells = assay: CellTiter-Glo cell proliferation inhibition, NCI-H716; format: cell-based; conditions: Homo sapiens, 72 h, read-out: NCI-H716 cell proliferation inhibition rate IC50
# Description: To evaluate inhibitory effects of the compounds on the proliferation of NCI-H716, SNU-16 and BaF3-FGFR2-BICC1 V564F cells by cell proliferation inhibition experiments.
# CellTiter-Glo method was used to detect inhibitory effects of the compounds on the proliferation of NCI-H716, SNU-16 and BaF3 FGFR2-BICC1 V564F cells. The highest detection concentration of the compounds was 1000 nM, which was diluted in 3 folds, with a total of 9 concentrations (1000 nM to 0.15 nM). After the cells were plated at an appropriate density, compounds were added the next day and incubated for 72 h before detection using the […] detection kit.
# as §2, with “(%):” for “(%): Calculation was performed on the raw data (665 nm/620 nm reading ratio) according to the following formula to obtain the inhibition rate.”
# as §3
# [1] = tested on: BaF3 FGFR2-BICC1 V564F cells; assay: CellTiter-Glo cell proliferation inhibition, BaF3 FGFR2-BICC1 V564F; format: cell-based; conditions: Mus musculus, 72 h, read-out: BaF3 FGFR2-BICC1 V564F inhibitory activity IC50
# Method in brief: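 Cells plated, compound added next day as 9-point 3-fold series from 1000 nM to 0.15 nM, incubated 72 h. Viability by CellTiter-Glo luminescence; IC50 from four-parameter variable-slope fit of percent inhibition.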
# [2] = Pharmacokinetic experiment in SD rats after oral administration; format: in vivo; conditions: 5 mg/kg, plasma; for AUC(0-t) / AUC(0-inf) / half-life / MRT / Cmax: male, Sprague-Dawley (SD), rat, po; for AUC(0-t): read-out: Area under the curve AUC0-t; for AUC(0-inf): read-out: Area under the curve AUC0-∞; for half-life: read-out: Half-life t1/2 (converted); for MRT: read-out: Mean residence time MRT; for Cmax: read-out: Plasma concentration Cmax; for Time to peak tmax: p.o.
# FGFR1, sequence (P11362 478-767): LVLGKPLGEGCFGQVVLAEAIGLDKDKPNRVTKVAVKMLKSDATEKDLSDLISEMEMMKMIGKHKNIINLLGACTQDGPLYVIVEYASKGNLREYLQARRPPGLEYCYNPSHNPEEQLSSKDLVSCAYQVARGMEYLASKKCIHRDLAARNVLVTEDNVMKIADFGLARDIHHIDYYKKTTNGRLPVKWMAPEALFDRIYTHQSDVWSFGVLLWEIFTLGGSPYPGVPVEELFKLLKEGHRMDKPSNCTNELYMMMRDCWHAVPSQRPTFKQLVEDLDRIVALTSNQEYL
# FGFR2 V564F, sequence (P21802 481-770 V564F): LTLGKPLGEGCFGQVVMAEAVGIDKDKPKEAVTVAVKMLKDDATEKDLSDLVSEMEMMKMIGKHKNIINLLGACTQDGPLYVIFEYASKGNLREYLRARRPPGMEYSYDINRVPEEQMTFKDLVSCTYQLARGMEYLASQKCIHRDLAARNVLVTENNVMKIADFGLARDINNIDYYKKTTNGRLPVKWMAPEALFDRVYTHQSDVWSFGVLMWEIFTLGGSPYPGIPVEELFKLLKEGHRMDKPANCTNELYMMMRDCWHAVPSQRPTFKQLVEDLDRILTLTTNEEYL
# FGFR2, sequence (P21802 481-770): as the sequence (P21802 481-770 V564F) above, with F84V counted along it
# FGFR3, sequence (P22607 472-761): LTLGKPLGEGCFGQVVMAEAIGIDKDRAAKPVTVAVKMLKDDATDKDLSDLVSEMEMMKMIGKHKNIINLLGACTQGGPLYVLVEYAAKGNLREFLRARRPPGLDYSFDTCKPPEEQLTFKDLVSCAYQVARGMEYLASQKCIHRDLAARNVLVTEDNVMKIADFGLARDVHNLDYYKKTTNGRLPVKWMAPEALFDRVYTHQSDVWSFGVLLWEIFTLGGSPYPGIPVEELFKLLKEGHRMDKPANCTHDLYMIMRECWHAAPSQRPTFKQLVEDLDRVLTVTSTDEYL
IC50 (FGFR1) [nM],IC50 (FGFR3) [nM],IC50 (FGFR2 V564F) [nM],IC50 (FGFR2) [nM],IC50 (NCI-H716 cells) [nM],IC50 [1] [nM],AUC(0-t) [2] [ng·h/mL],AUC(0-inf) [2] [ng·h/mL],half-life [2] [h],MRT [2] [h],Cmax [2] [ng/mL],Time to peak tmax [2] [h],SMILES
7.2,2.7,2.8,2,1.5,2.2,–,–,–,–,–,–,"C=CC(=O)N1CC[C@H](n2nc(C#Cc3ccc4ccnn4c3)c3c(N)ncc(C(C)=O)c32)C1 [Example 71, (S)-1-(3-(7-acetyl-4-amino-3-(pyrazolo[1,5-a]pyridine-6-ethynylene)-1H-pyrazolo[4,3-c]pyridin-1-yl)pyrrolidine-1-methyl)prop-2-en-1-one]"
2.4,1.1,0.5,1,0.95,2,–,–,–,–,–,–,"C=CC(=O)N1CC[C@H](n2nc(C#Cc3ccc4c(c3)ncn4C3CC3)c3c(N)ncc(C(C)=O)c32)C1 [Example 37, (S)-1-(3-(7-acetyl-4-amino-3-((1-cyclopropyl-1H-benzo[d]imidazol-5-yl)ethynyl)-1H-pyrazolo[4,3-c]pyridin-1-yl)pyrrolidin-1-yl)prop-2-en-1-one]"
6.3,–,0.6,1.4,1.8,1.9,3400,3430,0.9,2.58,866,2,"C=CC(=O)N1CC[C@H](n2nc(C#Cc3ccc4c(c3)ncn4C)c3c(N)ncc(C(=O)CC)c32)C1 [Example 64, (S)-1-(3-(4-amino-3-((1-methyl-1H-benzo[d]imidazol-5-yl)ethynyl)-7-propionyl-1H-pyrazolo[4,3-c]pyridin-1-yl)pyrrolidin-1-yl)prop-2-en-1-one]"
1.6,–,0.6,0.5,1.31,0.3,2240,2240,0.5,2.38,534,2,"C=CC(=O)N1CC[C@H](n2nc(C#Cc3ccc4cn(C5CC5)nc4c3)c3c(N)ncc(C(C)=O)c32)C1 [Example 87, (S)-1-(3-(7-acetyl-4-amino-3-((2-cyclopropyl-2H-indazol-6-yl)ethynyl)-1H-pyrazolo[4,3-c]pyridin-1-yl)pyrrolidine-1-methyl)prop-2-en-1-one]"
2.8,–,1,1.6,0.91,1.9,2230,2270,1.1,2.99,604,2,"C=CC(=O)N1CC[C@H](n2nc(C#Cc3ccc4c(c3)ncn4C3CC3)c3c(N)ncc(C(=O)C4CC4)c32)C1 [Example 38, (S)-1-(3-(4-amino-7-(cyclopropanecarbonyl)-3-((1-cyclopropyl-1H-benzo[d]imidazol-5-yl)ethynyl)-1H-pyrazolo[4,3-c]pyridin-1-yl)pyrrolidin-1-yl)prop-2-en-1-one]"
2.1,–,0.5,0.4,0.96,0.4,1490,1490,0.5,2.39,394,0.5,"C=CC(=O)N1CC[C@H](n2nc(C#Cc3ccc4cn(CC)nc4c3)c3c(N)ncc(C(C)=O)c32)C1 [Example 85, (S)-1-(3-(7-acetyl-4-amino-3-((2-ethyl-2H-indazol-6-yl)alkynyl)-1H-pyrazolo[4,3-c]pyridin-1-yl)pyrrolidine-1-methyl)prop-2-en-1-one]"
2.4,–,0.3,1.4,1.42,0.5,–,–,–,–,–,–,"C=CC(=O)N1CC[C@H](n2nc(C#Cc3cc4ncn(C)c4cc3Cl)c3c(N)ncc(C(=O)C4CC4)c32)C1 [Example 68, (S)-1-(3-(4-amino-3-((6-chloro-1-methyl-1H-benzo[d]imidazol-5-yl)ethynyl)-7-(cyclopropanecarbonyl)-1H-pyrazolo[4,3-c]pyridin-1-yl)pyrrolidin-1-yl)prop-2-en-1-one]"
3,–,0.5,1.2,1.94,0.4,–,–,–,–,–,–,"C=CC(=O)N1CC[C@H](n2nc(C#Cc3ccc4c(c3)ncn4CC)c3c(N)ncc(C(=O)C4CC4)c32)C1 [Example 58, (S)-1-(3-(4-amino-7-(cyclopropanecarbonyl)-3-((1-ethyl-1H-benzo[d]imidazol-5-yl)ethynyl)-1H-pyrazolo[4,3-c]pyridin-1-yl)pyrrolidin-1-yl)prop-2-en-1-one]"
1.3,–,0.3,1,1.26,0.9,–,–,–,–,–,–,"C=CC(=O)N1CC[C@H](n2nc(C#Cc3cc4ncn(C5CC5)c4cc3F)c3c(N)ncc(C(C)=O)c32)C1 [Example 7, (S)-1-(3-(7-acetyl-4-amino-3-((1-cyclopropyl-6-fluoro-1H-benzo[d]imidazol-5-yl)ethynyl)-1H-pyrazolo[4,3-c]pyridin-1-yl)pyrrolidin-1-yl)prop-2-en-1-one]"
2.4,–,1.3,0.6,1.6,2.6,1510,1860,2.5,5.5,287,4,"C=CC(=O)N1CC[C@H](n2nc(C#Cc3ccc4oc(C5CC5)nc4c3)c3c(N)ncc(C(C)=O)c32)C1 [Example 70, (S)-1-(3-(7-acetyl-4-amino-3-((2-cyclopropylbenzo[d]oxazol-5-yl)alkynyl)-1H-pyrazolo[4,3-c]pyridin-1-yl)pyrrolidine-1-methyl)prop-2-en-1-one]"
2.2,–,0.4,0.8,1.77,1,–,–,–,–,–,–,"C=CC(=O)N1CC[C@H](n2nc(C#Cc3cc4ncn(CC)c4cc3F)c3c(N)ncc(C(=O)C4CC4)c32)C1 [Example 61, (S)-1-(3-(4-amino-7-(cyclopropanecarbonyl)-3-((1-ethyl-6-fluoro-1H-benzo[d]imidazol-5-yl)ethynyl)-1H-pyrazolo[4,3-c]pyridin-1-yl)pyrrolidin-1-yl)prop-2-en-1-one]"
3.6,–,0.4,0.7,2.09,0.8,–,–,–,–,–,–,"C=CC(=O)N1CC[C@H](n2nc(C#Cc3cc4ncn(CC)c4cc3F)c3c(N)ncc(C(C)=O)c32)C1 [Example 24, (S)-1-(3-(7-acetyl-4-amino-3-((1-ethyl-6-fluoro-1H-benzo[d]imidazol-5-yl)ethynyl)-1H-pyrazolo[4,3-c]pyridin-1-yl)pyrrolidin-1-yl)prop-2-en-1-one]"
